“Also recorded” adds a separate entry of the source.
How the values were obtained:
[1] = tested on: LMTK3; assay: Western blots of LMTK3 in BC cell lines; type: cell-based, human; details: for endogenous LMTK3 protein levels (Western blot): increasing concentrations of HSP90 inhibitor, 72 hours
[2] = tested on: ERα; assay: Western blots of ERα in BC cell lines; type: cell-based, human
[3] = tested on: HSP70; assay: Western blots of HSP70 in BC cell lines; type: cell-based, human; details: increasing concentrations of HSP90 inhibitor, 72 hours
[4] = tested on: NCI-60 cell lines; assay: NCI-60 five-dose evaluation; type: cell-based, human; details: five doses
[5] = tested on: CDC37; assay: Western blots of chaperones in BC cell lines; type: cell-based, human; details: increasing concentrations of C28, 48 hours
[6] = Pharmacokinetics in mice; type: in vivo; details: male, BALB/c (nude), mouse, plasma
[7] = tested on: NCI-60 panel of tumor cell lines; assay: NCI-60 one-dose screening; type: cell-based; details: Homo sapiens, 24 h, read-out: inhibition of all cancer cell lines
[8] = target: T1, IRAK4 (Homo sapiens, UniProt Q9NWZ3); assay: Western blots of kinases in BC cell lines; details: 10 μM C28, different time points
T1 sequence (Q9NWZ3 1-460): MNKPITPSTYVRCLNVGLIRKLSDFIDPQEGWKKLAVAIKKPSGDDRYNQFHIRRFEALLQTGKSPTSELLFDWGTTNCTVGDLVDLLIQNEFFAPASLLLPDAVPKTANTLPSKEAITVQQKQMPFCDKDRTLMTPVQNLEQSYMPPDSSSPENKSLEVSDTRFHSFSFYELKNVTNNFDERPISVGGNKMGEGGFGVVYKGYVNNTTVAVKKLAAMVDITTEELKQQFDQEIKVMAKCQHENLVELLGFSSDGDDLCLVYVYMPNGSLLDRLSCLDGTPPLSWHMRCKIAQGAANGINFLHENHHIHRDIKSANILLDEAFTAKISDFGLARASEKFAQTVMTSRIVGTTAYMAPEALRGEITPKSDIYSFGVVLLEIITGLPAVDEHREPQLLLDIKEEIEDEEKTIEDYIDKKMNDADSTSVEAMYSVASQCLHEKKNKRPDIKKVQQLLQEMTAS

[9] = target: HIPK2 (Homo sapiens, UniProt Q9H2X6); assay: Western blots of kinases in BC cell lines; details: 10 μM C28, different time points
[10] = target: human HSP90α (Homo sapiens, UniProt P07900); assay: Isothermal titration calorimetry; type: binding; details: 0.2 mM C28 injected into 20 μM human HSP90α
[11] = Histopathologic analysis of tumor sections and organs, MMTV-Neu mice; type: in vivo; details: C28 10 mg/kg oral daily
[12] = tested on: MMTV-Neu mammary tumors; assay: MMTV-Neu transgenic mammary tumor model; type: in vivo, mice
[13] = tested on: HSP90; assay: Western blots of chaperones in BC cell lines; type: cell-based, human; details: increasing concentrations of C28, 48 hours
[14] = tested on: MCF12A; assay: Cell death and apoptosis; type: cell-based, human; details: even at high concentrations of C28 and longer time points
[15] = tested on: BC cell lines (MCF7, T47D, MDA-MB-231); assay: Cell death and apoptosis; type: cell-based, human; details: increasing concentrations of C28, 72 hours
[16] = tested on: MDA-MB-231 xenografts; assay: MDA-MB-231 xenograft mouse model; type: in vivo, NSG mice; details: C28 10 mg/kg oral daily; after 23 days
[17] = tested on: BC cells; assay: Cell viability assay; type: cell-based; details: Homo sapiens, 72 h, read-out: IC50 values, growth of BC cells
[18] = target: T2, human CDC37 (cell division cycle 37), recombinant (human, UniProt Q16543 1-378); assay: MST
T2 sequence (looked up): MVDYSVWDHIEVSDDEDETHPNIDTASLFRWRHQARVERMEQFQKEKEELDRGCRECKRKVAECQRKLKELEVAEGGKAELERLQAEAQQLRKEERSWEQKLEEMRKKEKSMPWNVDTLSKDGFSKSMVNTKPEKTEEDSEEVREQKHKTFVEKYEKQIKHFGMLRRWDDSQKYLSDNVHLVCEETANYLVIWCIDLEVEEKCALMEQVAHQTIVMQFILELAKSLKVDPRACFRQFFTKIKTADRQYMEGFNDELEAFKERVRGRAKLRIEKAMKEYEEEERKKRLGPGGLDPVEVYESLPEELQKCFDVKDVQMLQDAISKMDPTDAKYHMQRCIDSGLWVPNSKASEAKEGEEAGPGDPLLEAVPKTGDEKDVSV

HIPK2, sequence (Q9H2X6 whole entry): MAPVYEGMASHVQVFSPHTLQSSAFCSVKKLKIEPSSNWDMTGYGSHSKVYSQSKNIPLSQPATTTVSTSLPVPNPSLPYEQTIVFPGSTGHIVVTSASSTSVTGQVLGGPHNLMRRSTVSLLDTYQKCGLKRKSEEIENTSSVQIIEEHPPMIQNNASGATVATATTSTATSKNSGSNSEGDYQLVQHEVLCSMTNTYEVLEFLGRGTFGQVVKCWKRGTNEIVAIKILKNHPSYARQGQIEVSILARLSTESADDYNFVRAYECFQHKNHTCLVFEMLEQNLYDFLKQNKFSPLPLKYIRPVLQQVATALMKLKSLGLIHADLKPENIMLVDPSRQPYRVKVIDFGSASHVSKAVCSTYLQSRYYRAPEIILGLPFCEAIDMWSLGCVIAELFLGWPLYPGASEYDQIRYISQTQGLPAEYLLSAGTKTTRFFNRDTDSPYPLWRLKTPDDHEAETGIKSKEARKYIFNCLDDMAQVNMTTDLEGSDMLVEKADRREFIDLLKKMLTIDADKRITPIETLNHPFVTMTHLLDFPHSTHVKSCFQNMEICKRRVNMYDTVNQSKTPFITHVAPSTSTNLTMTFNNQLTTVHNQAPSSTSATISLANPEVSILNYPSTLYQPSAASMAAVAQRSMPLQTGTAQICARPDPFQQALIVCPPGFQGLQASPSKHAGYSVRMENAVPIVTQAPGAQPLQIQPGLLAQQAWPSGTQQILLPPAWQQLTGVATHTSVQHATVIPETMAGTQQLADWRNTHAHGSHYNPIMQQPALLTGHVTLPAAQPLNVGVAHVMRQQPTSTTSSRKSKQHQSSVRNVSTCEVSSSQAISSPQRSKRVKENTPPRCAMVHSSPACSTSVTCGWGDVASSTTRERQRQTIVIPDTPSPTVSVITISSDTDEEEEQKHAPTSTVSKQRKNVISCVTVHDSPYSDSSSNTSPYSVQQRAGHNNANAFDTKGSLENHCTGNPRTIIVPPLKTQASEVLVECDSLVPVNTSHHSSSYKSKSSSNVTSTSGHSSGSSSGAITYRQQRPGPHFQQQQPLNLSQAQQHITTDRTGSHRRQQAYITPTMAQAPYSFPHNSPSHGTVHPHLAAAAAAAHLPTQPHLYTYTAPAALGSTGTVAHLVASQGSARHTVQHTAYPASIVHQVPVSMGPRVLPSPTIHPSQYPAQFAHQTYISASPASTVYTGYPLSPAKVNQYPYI

## CCNC(=O)c1noc(-c2cc(C(C)C)c(O)cc2O)c1-c1ccc(CN2CCOCC2)cc1 [NVP-AUY922]
[1]
  endogenous LMTK3 protein levels (Western blot): reduction of endogenous LMTK3 protein levels
[2]; BC cell lines, HSP90 inhibitor, 72 hours
  ERα levels (Western blot): down-regulation of ERα
[3]
  HSP70 levels (Western blot): induction of HSP70

## COC1=C2C[C@@H](C)C[C@H](OC)[C@H](O)[C@@H](C)/C=C(\C)[C@H](OC(N)=O)[C@@H](OC)/C=C\C=C(/C)C(=O)NC(=CC1=O)C2=O [geldanamycin]
[1]
  endogenous LMTK3 protein levels (Western blot): reduction of endogenous LMTK3 protein levels
[3]
  HSP70 levels (Western blot): induction of HSP70

## FC(F)(F)Oc1cccc(-c2cnc3ccc(-c4ccncc4)nn23)c1 [C28, 6-(pyridin-4-yl)-3-(3-(trifluoromethoxy)phenyl)imidazo[1,2-b]pyridazine]
[4]
  sensitivity of renal cancer cells: more sensitive
[1]; increasing concentrations of C28, different time points
  LMTK3 protein levels (Western blot): time- and dose-dependent degradation of LMTK3
[5]
  protein levels of CDC37 (Western blot): no effect
[6]; ip, 10 mg/kg, T1/2, plasma
  half-life: ~59 min
[6]; iv, 5 mg/kg
  Cmax: 4.3 µM
[6]; iv, 5 mg/kg, half-life (T1/2)
  half-life: ~10 min
[6]; po, 10 mg/kg
  Cmax: 632 ng/mL
[6]; po, 10 mg/kg, T1/2, plasma
  half-life: ~62 min
[2]; BC cell lines treated with C28
  protein levels of ERα (Western blot): decreased protein levels of ERα
[7]
  inhibition at 10 µM: > 50%
[8]
  IRAK4 protein levels (Western blot): degradation
[9]
  HIPK2 protein levels (Western blot): degradation
[10]
  binding to HSP90α (ITC): no detectible heat of interaction; also recorded: does not bind to HSP90
[11]
  toxicity (histopathology of tumor, lung, stomach, heart, kidney, liver, spleen): lack of toxicity
[12]; C28 10 mg/kg
  Ki-67 IHC analysis of tumor sections: decreased proliferation
  LMTK3 expression in tumors (IHC staining): reduction of LMTK3 expression
[12]; C28 10 mg/kg oral daily
  tumor growth compared to the vehicle-treated group: nearly completely abrogated tumor growth
[13]
  protein levels of HSP90 (Western blot): no effect
[14]
  cell death of nontransformed MCF12A: low percentage of cell death
[15]
  apoptosis of BC cell lines: triggered apoptosis
[16]
  tumor growth compared to the control group: significantly impeded growth
[17]
  IC50: 6.5 to 8.64 µM

B1: LMTK3 catalytic domain (LMTK3cat; amino acids 134 to 444) (domain or fragment, UniProt Q96Q04 105-415, looked up)
chain: LAEVSLPMPAPQPSHSDMTTPLGLSRQHLSYLQEIGSGWFGKVILGEIFSDYTPAQVVVKELRASAGPLEQRKFISEAQPYRSLQHPNVLQCLGLCVETLPFLLIMEFCQLGDLKRYLRAQRPPEGLSPELPPRDLRTLQRMGLEIARGLAHLHSHNYVHSDLALRNCLLTSDLTVRIGDYGLAHSNYKEDYYLTPERLWIPLRWAAPELLGELHGTFMVVDQSRESNIWSLGVTLWELFEFGAQPYRHLSDEEVLAFVVRQQHVKLARPRLKLPYADYWYDILQSCWRPPAQRPSASDLQLQLTYLLSER
modifications: covalently labeled with a red NHS-647 fluorophore (NT647) for MST
[18]
  Kd: 2.21 ± 1.17 µM

— publication PMC7673765 (Science Advances, 2020)
